Where two headings read alike, the source gives them in different places. Values belong to the molecule of their own block, whether it stands above or below them.
Columns and labels:
TRPM4 [1] = target: T1, TRPM4 (Rattus norvegicus, UniProt Q9ESQ5); assay: Whole-cell patch-clamp of TRPM4 currents in INS-1 cells perfused with buffered [Ca2+]i; assay type: cell-based; set-up: The channel was detected in INS-1 and RINm5F cell lines; endogenous in cells; host or cells: INS-1 (rat insulinoma beta-cell line); settings: current amplitude at +80 mV
TRPM4 [2] = target: T2, TRPM4 (Homo sapiens, UniProt Q8TD43); assay: Whole-cell patch-clamp of TRPM4 currents in TrexHEK-293 cells overexpressing TRPM4, buffered [Ca2+]i; assay type: cell-based; settings: flag-TRPM4-TrexHEK293, current at +80 mV
T2 construct: expressed in transfected cells; host or cells: TrexHEK-293 (tetracycline-inducible HEK-293)

TRPM4 [3] = target: T1, TRPM4; assay: Glibenclamide on TRPM4 currents in INS-1 cells; settings: pressure applied
TRPM4 [4] = assay: Agonist-induced TRPM4 currents in TrexHEK293 cells overexpressing TRPM4 (double carbachol application); assay type: cell-based, human
Method: Patch-clamp experiments were performed in the tight-seal whole-cell configuration at 21-25 ° C. High-resolution current recordings were acquired by a computer-based patch-clamp amplifier system (EPC-9, HEKA, Lambrecht, Germany). Patch pipettes had resistance between 3-6 MΩ after filling with the standard intracellular solution. […] Currents were filtered at 2.9 kHz and digitized at 100 μs intervals. Capacitive currents and series resistance were determined and corrected before each voltage ramp using the automatic capacitance compensation of the EPC-9. The low-resolution temporal development of membrane currents was assessed by extracting the current amplitude at -80 mV or +80 mV from individual ramp current records. Data analysis, statistical analysis and graphical display of patch-clamp experiments were done using the Igor […] software program (Wavemetrics). […] Cells were treated with carbachol twice according to protocol used in the calcium measurement experiments (n=5). First, to induce exocytosis of TRPM4 containing vesicles and second to activate the new pool of TRPM4 present in the plasma membrane. Utilizing Ca^2+ imaging techniques, fura-2-AM loaded cells were stimulated with 1 mM carbachol for 200 s followed by washout and a second stimulation (FIG. 9A). […]

[5] = 600 s, read-out: KD, dose-response fit of TRPM4 activation, secondary phase

T1 sequence (Q9ESQ5 whole entry, the tested form may be a part): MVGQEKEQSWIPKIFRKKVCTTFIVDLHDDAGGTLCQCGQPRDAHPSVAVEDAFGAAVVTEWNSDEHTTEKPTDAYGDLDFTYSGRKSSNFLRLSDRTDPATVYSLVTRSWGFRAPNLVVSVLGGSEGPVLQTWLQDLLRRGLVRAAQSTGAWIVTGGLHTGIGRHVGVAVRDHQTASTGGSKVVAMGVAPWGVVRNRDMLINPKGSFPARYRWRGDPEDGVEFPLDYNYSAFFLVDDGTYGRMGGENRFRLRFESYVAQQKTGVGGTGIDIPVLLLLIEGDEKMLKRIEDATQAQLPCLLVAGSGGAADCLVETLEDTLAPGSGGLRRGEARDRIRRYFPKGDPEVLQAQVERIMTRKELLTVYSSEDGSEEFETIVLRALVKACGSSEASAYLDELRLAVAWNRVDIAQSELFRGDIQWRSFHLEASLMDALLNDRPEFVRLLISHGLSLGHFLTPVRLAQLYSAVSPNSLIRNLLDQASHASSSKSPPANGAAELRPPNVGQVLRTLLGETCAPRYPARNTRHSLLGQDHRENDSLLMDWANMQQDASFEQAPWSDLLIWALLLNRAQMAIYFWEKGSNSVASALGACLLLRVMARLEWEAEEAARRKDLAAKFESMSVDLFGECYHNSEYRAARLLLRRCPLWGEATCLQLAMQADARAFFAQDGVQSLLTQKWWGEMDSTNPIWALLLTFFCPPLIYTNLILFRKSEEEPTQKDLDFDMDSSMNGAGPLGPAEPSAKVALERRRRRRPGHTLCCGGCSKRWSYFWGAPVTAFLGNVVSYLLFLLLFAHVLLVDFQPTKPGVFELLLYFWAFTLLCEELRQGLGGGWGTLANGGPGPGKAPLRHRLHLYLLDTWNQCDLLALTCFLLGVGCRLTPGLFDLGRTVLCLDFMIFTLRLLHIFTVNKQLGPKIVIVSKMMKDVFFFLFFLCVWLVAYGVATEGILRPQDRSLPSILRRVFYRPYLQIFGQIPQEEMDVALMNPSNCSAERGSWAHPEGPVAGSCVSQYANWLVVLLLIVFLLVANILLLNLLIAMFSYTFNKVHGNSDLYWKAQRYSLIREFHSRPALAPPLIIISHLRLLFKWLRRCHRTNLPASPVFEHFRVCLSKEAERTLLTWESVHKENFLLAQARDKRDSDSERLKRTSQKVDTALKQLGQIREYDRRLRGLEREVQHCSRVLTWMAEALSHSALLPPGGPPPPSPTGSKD
T2 sequence (Q8TD43 whole entry): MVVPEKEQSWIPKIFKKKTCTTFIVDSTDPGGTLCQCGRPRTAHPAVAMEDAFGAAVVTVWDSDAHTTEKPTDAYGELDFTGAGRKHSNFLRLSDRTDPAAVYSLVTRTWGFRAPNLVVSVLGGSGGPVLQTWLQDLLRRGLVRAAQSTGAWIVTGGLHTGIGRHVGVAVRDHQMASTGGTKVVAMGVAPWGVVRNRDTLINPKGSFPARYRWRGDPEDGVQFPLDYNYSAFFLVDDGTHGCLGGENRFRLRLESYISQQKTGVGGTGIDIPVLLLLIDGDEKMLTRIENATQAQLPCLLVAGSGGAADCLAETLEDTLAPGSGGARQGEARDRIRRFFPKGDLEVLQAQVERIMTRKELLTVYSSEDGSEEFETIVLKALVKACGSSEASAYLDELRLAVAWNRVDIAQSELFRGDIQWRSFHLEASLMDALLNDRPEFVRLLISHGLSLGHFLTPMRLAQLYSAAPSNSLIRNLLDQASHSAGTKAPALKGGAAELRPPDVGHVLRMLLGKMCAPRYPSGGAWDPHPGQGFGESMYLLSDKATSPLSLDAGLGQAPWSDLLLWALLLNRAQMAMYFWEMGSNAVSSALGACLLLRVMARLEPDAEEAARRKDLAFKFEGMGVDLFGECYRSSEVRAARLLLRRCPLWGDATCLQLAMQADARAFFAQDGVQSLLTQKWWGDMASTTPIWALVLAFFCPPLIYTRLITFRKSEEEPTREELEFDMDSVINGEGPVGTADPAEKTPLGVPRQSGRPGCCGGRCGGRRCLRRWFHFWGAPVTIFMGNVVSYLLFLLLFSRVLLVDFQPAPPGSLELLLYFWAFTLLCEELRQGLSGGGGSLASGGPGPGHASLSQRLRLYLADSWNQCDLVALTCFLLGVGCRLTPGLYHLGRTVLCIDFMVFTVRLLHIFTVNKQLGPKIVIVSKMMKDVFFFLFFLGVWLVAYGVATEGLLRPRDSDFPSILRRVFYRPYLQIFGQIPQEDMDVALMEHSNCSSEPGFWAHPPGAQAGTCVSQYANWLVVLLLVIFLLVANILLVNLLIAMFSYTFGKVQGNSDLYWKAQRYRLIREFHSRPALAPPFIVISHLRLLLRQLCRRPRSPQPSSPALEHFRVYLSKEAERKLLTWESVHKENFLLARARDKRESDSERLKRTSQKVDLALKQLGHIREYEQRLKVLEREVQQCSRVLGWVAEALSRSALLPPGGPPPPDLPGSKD

- Kd (TRPM4 [1]; 80 s, read-out: KD, dose-response fit of TRPM4 activation, first phase): 1700 nM
- Kd (TRPM4 [1]; [5]): 1200 nM
Compound: [Ca+2] [Ca^2+]
- Kd (TRPM4 [2]; [5]): 1300 nM
- Kd (TRPM4 [2]; peak of first phase, read-out: KD, dose-response fit of TRPM4 activation, first phase): 1200 nM

Compound: COc1ccc(Cl)cc1C(=O)NCCc1ccc(S(=O)(=O)NC(=O)NC2CCCCC2)cc1 [Glibenclamide, glibenclamide]
- effect on TRPM4 channels (TRPM4 [3]): activates TRPM4 channels

Compound: C[N+](C)(C)CCOC(N)=O [carbachol]
- TRPM4 current amplitude (TRPM4 [4]; first application of 1 mM carbachol): less than 1 nA
- TRPM4 current amplitude (TRPM4 [4]; second carbachol application after washout): around 10 nA

From patent US8148083B2, “Methods of screening for TRPM4 modulators of insulin secretion” (The Queen's Medical Center, priority 2006, dated 2012)
